Reference: paper PMC8879074, “A Novel Small Molecular Prostaglandin Receptor EP4 Antagonist, L001, Suppresses Pancreatic Cancer Metastasis” (Molecules, 2022)

Assays:
[1] = test system: Pan02-Luc hepatic metastasis; experiment: Pan02-Luc liver metastasis model with bioluminescent imaging; type: in vivo, C57BL/6 mice
Protocol: (§1) Male C57/BL6 mice (6–8 weeks) were obtained from the National Rodent Laboratory Animal Resources (NRLAR, Shanghai, China). All mice were housed according to Institutional Animal Care and Use Committee guidelines and under a protocol approved by East China Normal University Ethics Committee with respect to animal care and welfare assurance. The bioluminescent liver metastasis mouse model was established as described previously. In brief, 2 × 10^6 Pan02/luc cells suspended in 50 μL of PBS were injected into mice spleen. […] Tumor metastasis was monitored by using an in vivo imaging system following intraperitoneal injection with D-Luciferin (2 mg per mouse; Promega). Bioluminescence intensity was recorded every seven days by a Xenogen IVIS-200 Optical in vivo imaging system (PerkinElmer; Waltham, MA, USA) for up to 4 weeks. The mouse body weight was measured every other day. Survival curve analysis was performed using GraphPad Prism 7.
Mouse liver tissues were harvested, fixed, paraffin embedded, and sectioned (8 μm). The tissues were permeabilized with 0.25% TritonX-100 at room temperature for 15 min, blocked with 1% FBS in PBS, and followed by incubation in primary antibodies at 4 °C overnight: rabbit anti-YAP (1:50 dilution, ab205270, abcam). The sections were then washed with PBS, incubated with anti-rabbit secondary antibody for 2 h and dyed with DAPI (10 μg/mL in PBS) for 5 min at room temperature. Slides were mounted using DPX Mountant (Electron Microscopy Sciences) and images were obtained by inverted fluorescence microscope (Olympus, Tokyo, Japan).

EP4 [2] = target: T1, EP4 (Homo sapiens, UniProt P35408); experiment: cAMP responsive element (CRE) luciferase reporter assay; type: cell-based; set-up: host or cells: HEK293 (results) / CHO-K1 (methods)
T1 sequence (P35408 whole entry): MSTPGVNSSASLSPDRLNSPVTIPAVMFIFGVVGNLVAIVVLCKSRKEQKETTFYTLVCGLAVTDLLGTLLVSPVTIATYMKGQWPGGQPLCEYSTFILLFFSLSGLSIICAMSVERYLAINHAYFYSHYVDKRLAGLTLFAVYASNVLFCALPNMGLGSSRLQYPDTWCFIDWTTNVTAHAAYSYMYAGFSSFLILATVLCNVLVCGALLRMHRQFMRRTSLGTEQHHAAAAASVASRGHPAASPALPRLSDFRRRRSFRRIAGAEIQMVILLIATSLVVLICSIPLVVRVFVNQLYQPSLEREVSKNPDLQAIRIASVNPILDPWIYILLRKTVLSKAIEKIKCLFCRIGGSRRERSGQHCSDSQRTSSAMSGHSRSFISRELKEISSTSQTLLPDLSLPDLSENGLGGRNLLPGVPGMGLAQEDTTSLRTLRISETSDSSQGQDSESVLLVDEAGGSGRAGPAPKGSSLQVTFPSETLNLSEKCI
Protocol: CHO-K1 cells or pancreatic cancer cell lines were transfected with a cAMP responsive element (CRE) reporter or TEAD reporter using lipofectamine 2000 according to the manufacturer’s manual. Transfected cells were treated with varied concentrations of compounds for 24 h. Then, cells were lysed and luciferase activities were determined using Dual-Luciferase Reporter Assay Kit (Promega, Madison, WI, USA).

EP4 [3] = target: T1, EP4; experiment: Calcium flux assay, human EP4; type: cell-based; set-up: expressed in transfected cells; host or cells: CHO-Gα16
Protocol: (§2) Calcium flux assay was conducted as described in our previous study. Briefly, CHO-Gα16 cells were transfected, respectively, with human EP1, human EP2, human EP3, human EP4, monkey EP4, mouse EP4 and rat EP4 overexpression constructs using lipofectamine 2000 according to the manufacturer’s manual. Cells were then seeded into a 96-well black plate with a cell density of 2 × 10^4 cells/100 μL per well for a 16-h culture. On the next day, cells were incubated for 45 min with reagents (100 μL/well) of Calcium-5 Assay Kit (Molecular Devices, San Jose, CA, USA). Then, cells were pre-treated with indicated concentrations of L001 for 15 min and stimulated with PGE2 (EC80). The calcium flux was detected subsequently by a Flexstation® 3 Multi-Mode Microplate Reader (Molecular Devices, San Jose, CA, USA).

Pan02 cells [4] = experiment: Transwell migration assay, Pan02; type: cell-based, murine; conditions: Pan02; with PGE2; 24 h
Protocol: The transwell assay was conducted as described previously, using 8 μm pore transwell inserts (Corning, NY, USA). Cells were suspended in serum-free DMEM and seeded into upper chambers at appropriate density. The bottom chamber was filled with DMEM supplemented with 10% fetal bovine serum and indicated concentrations of PGE2. The compounds were added in both upper and bottom chambers. […] Migrated cells were counted and quantified using image J.

Pan02 cells [5] = experiment: Wound healing assay, Pan02; type: cell-based, murine; conditions: 0.1 μM PGE2, 24 h, dose-dependent
Protocol: The wound healing assay was performed according to a standard protocol as described before. Briefly, Pan02 and BxPC-3 cells were grown as a confluent monolayer in 12-well plates (Corning, Corning, NY, USA) overnight and starved with serum-free medium for 6 h. The monolayer cells were disrupted with a P100 micropipette tip (JET BIOFIL, Guangzhou, China) and rinsed with PBS to remove detached cells. Medium containing different concentrations of compounds was added subsequently. After 24 h, treated cells were stained with 2 μM calcein-AM (Yeasen, Shanghai, China) for 20 min and washed with PBS. Photos were taken of the area in the scraped zone of each dish at 100× magnification by using an inverted fluorescent microscope (OLYMPUS, Tokyo, Japan).

human EP2 = target: T2, human EP2 (Homo sapiens, UniProt P43116); experiment: Calcium flux assay, human EP2; type: cell-based; conditions: CHO-Gα16 cells, PGE2 (EC80)
T2 construct: expressed in transfected cells; host or cells: CHO-Gα16
T2 sequence (P43116 whole entry): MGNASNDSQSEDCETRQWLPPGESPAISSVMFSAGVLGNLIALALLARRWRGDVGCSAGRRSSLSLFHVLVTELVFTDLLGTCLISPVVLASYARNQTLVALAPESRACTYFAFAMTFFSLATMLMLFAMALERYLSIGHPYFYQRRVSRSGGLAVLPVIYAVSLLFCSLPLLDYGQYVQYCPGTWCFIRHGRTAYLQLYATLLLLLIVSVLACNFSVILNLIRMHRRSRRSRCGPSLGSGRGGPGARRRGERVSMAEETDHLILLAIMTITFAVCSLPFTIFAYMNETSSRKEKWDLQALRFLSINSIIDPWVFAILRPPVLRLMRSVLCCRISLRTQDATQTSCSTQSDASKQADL
Protocol: as §2

Pan02 cells [6] = experiment: Cell viability assay (MTS), Pan02; type: cell-based, murine; conditions: 72 h
Protocol: (§3) Cells were seeded into 96-well plates and treated with varied concentrations of compounds for 72 hrs. Cell viabilities were determined by using MTS reagent (Promega, Madison, WI, USA) according to the manufacturer’s manual. Spectrophotometric absorbance at 490 nm was measured by Flexstation® 3 Multi-Mode Microplate Reader (Molecular Devices, San Jose, CA, USA). The experiments were independently repeated three times.

BxPC-3 cells = experiment: Cell viability assay (MTS), BxPC-3; type: cell-based, human; conditions: 72 h
Protocol: as §3

[7] = test system: YAP/TEAD reporter in Pan02 cells; experiment: TEAD-driven luciferase reporter assay, Pan02; type: cell-based, murine; conditions: 16 h
Protocol: (§4) CHO-K1 cells or pancreatic cancer cell lines were transfected with a cAMP responsive element (CRE) reporter or TEAD reporter using lipofectamine 2000 according to the manufacturer’s manual. […] Then, cells were lysed and luciferase activities were determined using Dual-Luciferase Reporter Assay Kit (Promega, Madison, WI, USA).

[8] = Body weight of mice in Pan02-Luc metastasis model; type: in vivo, C57BL/6 mice; conditions: L001 75 mg/kg p.o. daily; gemcitabine 25 mg/kg i.p. twice a week; n = 6
Protocol: as §1

[9] = test system: YAP/TEAD reporter in BxPC-3 cells; experiment: TEAD-driven luciferase reporter assay, BxPC-3; type: cell-based, human; conditions: 16 h
Protocol: as §4

C[C@H](NC(=O)c1c(Cc2cccc(C(F)(F)F)c2)sc2c1CCOC2)c1ccc(C(=O)O)cc1 [L001]
YAP protein level in hepatic metastasis loci ([1]; IHC, L001 75 mg/kg p.o. daily): decreased protein levels of YAP
H&E imaging of liver sections ([1]; L001 or E7046 75 mg/kg p.o. daily, gemcitabine 25 mg/kg i.p. twice a week): remarkably reduced metastatic clusters
reduction of Pan02 cell liver metastases (bioluminescence of separated livers) ([1]; L001 or E7046 75 mg/kg p.o. daily, gemcitabine 25 mg/kg i.p. twice a week, n = 6): 85.14%
reduction in median luminescence signal compared with vehicle control group ([1]; day 28, L001 or E7046 75 mg/kg p.o. daily, gemcitabine 25 mg/kg i.p. twice a week, n = 6): 80.57%
median survival ([1]; n = 9, L001 or E7046 75 mg/kg p.o. daily, gemcitabine 25 mg/kg i.p. twice a week, control 34 days): 42 days
mRNA expressions of Vimentin and Snail in hepatic metastasis loci ([1]; qPCR, L001 75 mg/kg p.o. daily): reduced the mRNA expressions
IC50 (EP4 [2]): 7.29 ± 0.64 nM
antagonism efficacy on EP4 compared with E7046 (EP4 [2]; CRE reporter assay): over 5 fold
IC50 (EP4 [3]): 1.47 ± 0.02 nM
antagonism efficacy on EP4 compared with E7046 (EP4 [3]; calcium flux assay): over 5 fold
migrated cells in the lower layer of the transwell (Pan02 cells [4]): reduced migrated cells
PGE2-triggered wound closure (Pan02 cells [5]): significantly blocked
IC50 (human EP2): > 10000 nM
cell viability (Pan02 cells [6]): did not affect the cell viabilities
cell viability (BxPC-3 cells): did not affect the cell viabilities
PGE2-driven YAP/TEAD reporter activity [7]: remarkably suppressed
body weight loss [8]: barely found
PGE2-driven YAP/TEAD reporter activity [9]: remarkably suppressed
